Source: publication doi:10.1101/2020.07.01.182642v1 (biorxiv, 2020)

Tests used:
Details in all cases: binder
STK17B = target: T1, STK17B (Homo sapiens, UniProt O94768)
T1 sequence (O94768 1-372): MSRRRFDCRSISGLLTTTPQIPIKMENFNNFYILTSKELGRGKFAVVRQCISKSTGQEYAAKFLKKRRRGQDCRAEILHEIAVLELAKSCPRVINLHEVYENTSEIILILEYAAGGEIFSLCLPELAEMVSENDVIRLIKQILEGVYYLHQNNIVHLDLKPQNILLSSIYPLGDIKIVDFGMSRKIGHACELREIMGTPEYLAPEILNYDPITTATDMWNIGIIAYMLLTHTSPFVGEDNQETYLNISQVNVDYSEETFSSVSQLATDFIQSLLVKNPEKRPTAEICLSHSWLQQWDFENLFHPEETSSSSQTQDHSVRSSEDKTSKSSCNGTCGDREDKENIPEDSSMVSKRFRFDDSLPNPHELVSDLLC

PKMYT1 = target: T2, PKMYT1 (Homo sapiens, UniProt Q99640)
T2 sequence (Q99640 1-499): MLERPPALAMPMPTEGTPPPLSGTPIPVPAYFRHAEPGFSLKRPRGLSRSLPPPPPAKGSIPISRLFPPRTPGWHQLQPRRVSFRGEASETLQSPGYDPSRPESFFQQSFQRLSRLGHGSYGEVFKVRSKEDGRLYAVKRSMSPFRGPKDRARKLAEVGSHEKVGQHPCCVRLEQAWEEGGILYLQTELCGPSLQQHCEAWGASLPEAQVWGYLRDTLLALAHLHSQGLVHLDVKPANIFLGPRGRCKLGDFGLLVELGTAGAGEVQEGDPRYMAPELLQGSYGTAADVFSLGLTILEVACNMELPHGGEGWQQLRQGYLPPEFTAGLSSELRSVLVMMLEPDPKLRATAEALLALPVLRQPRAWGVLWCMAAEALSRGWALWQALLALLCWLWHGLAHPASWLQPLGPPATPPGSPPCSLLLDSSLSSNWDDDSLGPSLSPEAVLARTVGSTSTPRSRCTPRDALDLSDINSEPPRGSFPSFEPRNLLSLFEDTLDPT

TTK = target: T3, TTK (Homo sapiens, UniProt P33981)
T3 sequence (P33981 1-857): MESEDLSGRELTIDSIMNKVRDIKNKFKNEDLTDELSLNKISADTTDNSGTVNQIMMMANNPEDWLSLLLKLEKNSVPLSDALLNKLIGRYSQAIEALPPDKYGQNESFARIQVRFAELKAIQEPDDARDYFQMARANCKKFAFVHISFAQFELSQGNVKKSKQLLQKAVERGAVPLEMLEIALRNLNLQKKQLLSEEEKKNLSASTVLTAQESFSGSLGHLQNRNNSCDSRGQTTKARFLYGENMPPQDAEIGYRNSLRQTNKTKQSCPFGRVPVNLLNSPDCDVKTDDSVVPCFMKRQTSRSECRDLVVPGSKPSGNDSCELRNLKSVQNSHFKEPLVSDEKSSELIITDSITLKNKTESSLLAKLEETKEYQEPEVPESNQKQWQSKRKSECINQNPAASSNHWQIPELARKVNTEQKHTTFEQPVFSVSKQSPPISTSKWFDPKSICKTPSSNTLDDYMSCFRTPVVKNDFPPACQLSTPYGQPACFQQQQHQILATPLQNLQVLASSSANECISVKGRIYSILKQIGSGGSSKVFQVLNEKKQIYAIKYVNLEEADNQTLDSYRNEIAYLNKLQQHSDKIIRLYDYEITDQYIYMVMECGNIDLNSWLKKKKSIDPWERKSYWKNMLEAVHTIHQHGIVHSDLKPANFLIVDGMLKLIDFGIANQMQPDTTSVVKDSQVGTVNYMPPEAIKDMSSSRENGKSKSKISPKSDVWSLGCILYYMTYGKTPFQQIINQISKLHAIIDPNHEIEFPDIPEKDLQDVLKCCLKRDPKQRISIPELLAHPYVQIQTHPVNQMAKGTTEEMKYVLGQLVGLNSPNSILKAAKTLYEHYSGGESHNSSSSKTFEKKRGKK

CDKL1 = CDKL1 (Homo sapiens, UniProt Q00532)
CDKL1, sequence (Q00532 whole entry): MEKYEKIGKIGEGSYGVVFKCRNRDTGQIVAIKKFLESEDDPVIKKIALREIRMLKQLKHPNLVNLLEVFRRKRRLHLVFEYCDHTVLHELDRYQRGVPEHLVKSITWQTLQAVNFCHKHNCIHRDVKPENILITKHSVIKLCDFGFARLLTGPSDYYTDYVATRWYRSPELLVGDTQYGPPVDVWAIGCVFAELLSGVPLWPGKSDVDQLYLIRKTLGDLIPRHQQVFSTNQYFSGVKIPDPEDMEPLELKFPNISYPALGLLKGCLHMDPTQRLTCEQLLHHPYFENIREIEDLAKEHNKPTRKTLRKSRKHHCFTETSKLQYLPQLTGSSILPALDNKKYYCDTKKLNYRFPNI

PAK4 = PAK4 (Homo sapiens, UniProt O96013)
PAK4, sequence (O96013 whole entry): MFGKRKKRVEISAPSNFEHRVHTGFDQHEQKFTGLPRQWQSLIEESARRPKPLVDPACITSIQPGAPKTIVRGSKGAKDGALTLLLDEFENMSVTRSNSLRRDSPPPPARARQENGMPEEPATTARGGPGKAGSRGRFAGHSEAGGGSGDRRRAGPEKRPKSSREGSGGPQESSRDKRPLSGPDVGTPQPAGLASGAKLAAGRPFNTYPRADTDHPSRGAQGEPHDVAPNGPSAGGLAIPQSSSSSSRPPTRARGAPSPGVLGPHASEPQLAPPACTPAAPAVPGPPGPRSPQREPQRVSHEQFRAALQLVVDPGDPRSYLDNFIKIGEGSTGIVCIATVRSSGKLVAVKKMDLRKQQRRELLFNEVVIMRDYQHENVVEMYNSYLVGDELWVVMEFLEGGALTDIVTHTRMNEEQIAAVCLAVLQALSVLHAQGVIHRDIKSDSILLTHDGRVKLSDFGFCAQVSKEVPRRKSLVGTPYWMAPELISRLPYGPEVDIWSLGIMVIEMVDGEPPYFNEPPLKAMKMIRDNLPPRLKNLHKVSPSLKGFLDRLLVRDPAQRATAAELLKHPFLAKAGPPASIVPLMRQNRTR

CDK2 = CDK2 (Homo sapiens, UniProt P24941)
PIM2 = PIM2 (Homo sapiens, UniProt Q9P1W9)
PIM2, sequence (Q9P1W9 whole entry): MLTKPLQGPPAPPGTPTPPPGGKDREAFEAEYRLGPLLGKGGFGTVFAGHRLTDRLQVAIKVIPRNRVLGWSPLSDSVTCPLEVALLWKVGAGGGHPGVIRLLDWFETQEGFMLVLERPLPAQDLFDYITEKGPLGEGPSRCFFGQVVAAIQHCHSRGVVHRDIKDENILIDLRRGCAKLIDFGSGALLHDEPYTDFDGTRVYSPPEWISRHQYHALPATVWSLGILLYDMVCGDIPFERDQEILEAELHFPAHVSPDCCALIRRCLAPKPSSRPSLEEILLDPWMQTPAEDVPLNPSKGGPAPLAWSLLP

CDK16 = CDK16 (Homo sapiens, UniProt Q00536)
CDK16, sequence (Q00536 whole entry): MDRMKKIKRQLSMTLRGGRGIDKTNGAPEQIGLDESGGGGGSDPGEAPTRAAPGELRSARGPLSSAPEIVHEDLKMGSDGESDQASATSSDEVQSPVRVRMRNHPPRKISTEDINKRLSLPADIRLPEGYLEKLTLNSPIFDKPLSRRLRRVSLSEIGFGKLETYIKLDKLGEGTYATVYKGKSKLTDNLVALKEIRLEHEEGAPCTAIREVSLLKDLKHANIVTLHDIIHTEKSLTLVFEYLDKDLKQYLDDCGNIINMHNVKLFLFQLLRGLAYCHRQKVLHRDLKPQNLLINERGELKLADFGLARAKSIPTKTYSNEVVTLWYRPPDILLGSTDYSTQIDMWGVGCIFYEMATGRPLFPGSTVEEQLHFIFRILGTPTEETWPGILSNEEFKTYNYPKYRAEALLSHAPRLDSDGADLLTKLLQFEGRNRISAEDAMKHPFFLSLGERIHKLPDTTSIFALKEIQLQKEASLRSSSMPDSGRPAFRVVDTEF

CSNK2A2 = CSNK2A2 (Homo sapiens, UniProt P19784)
CSNK2A2, sequence (P19784 whole entry): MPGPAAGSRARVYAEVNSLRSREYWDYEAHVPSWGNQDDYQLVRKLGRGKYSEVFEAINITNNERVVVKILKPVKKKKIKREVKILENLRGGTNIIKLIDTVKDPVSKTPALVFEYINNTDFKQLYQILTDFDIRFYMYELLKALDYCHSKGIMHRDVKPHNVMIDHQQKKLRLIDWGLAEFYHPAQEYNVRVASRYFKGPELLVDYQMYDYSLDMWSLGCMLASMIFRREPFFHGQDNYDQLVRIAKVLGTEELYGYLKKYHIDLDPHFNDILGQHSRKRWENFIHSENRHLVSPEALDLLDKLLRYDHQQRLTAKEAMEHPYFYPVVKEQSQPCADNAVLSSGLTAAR

Structure (SMILES): CC(=O)c1cccc(-c2cnc3ccc(NCC4CC4)nn23)c1 [compound 1, K00135]
- ΔTm inhibitor 1 (STK17B): 4.2 °C
- ΔTm inhibitor 1 (PKMYT1): 0.9 °C
- ΔTm inhibitor 1 (TTK): 2.7 °C
- ΔTm inhibitor 1 (CDKL1): 0.2 °C
- ΔTm inhibitor 1 (PAK4): 1.5 °C
- ΔTm inhibitor 1 (CDK2): 1.5 °C
- ΔTm inhibitor 1 (PIM2): 4.7 °C
- ΔTm inhibitor 1 (CDK16): 0.5 °C
- ΔTm inhibitor 1 (CSNK2A2): 3.3 °C

Structure (SMILES): CCN1/C(=C/C(C)=O)Sc2ccc(OC)cc21 [compound 2, TG003]
- ΔTm inhibitor 2 (STK17B): 1.0 °C
- ΔTm inhibitor 2 (PKMYT1): -0.6 °C
- ΔTm inhibitor 2 (TTK): 0.5 °C
- ΔTm inhibitor 2 (CDKL1): 0.4 °C
- ΔTm inhibitor 2 (PAK4): 1.7 °C
- ΔTm inhibitor 2 (CDK2): -0.1 °C
- ΔTm inhibitor 2 (PIM2): 3.6 °C
- ΔTm inhibitor 2 (CDK16): -0.4 °C
- ΔTm inhibitor 2 (CSNK2A2): 2.6 °C

Structure (SMILES): Nc1nccc(-c2ccc3noc(-c4ccc(Cl)cc4)c3c2)n1 [compound 4, K00972]
- ΔTm inhibitor 4 (STK17B): 6.9 °C
- ΔTm inhibitor 4 (PKMYT1): 0.1 °C
- ΔTm inhibitor 4 (TTK): 1.7 °C
- ΔTm inhibitor 4 (CDKL1): 0.8 °C
- ΔTm inhibitor 4 (PAK4): 1.5 °C
- ΔTm inhibitor 4 (CDK2): 0.3 °C
- ΔTm inhibitor 4 (PIM2): 2.1 °C
- ΔTm inhibitor 4 (CDK16): 1.2 °C
- ΔTm inhibitor 4 (CSNK2A2): 0.9 °C
